# Test results reported in US8293768B2, “Organic compounds” (Novartis AG, priority 2006, dated 2012).
row,SMILES,melting point
1,"Cc1nc(N2CCN(Cc3ccc(C(F)(F)F)cc3)C2=O)sc1C(=O)O [Example 6.5, 4-methyl-2-(2-oxo-3-(4-(trifluoromethyl)benzyl)imidazolidin-1-yl)thiazole-5-carboxylic acid]",195 to 197 °C
2,"Cc1nc(-n2cnn(Cc3ccc(OC(F)F)cc3)c2=O)sc1C(=O)NCc1cccnc1 [Example 21.1, 2-(1-(4-(difluoromethoxy)benzyl)-5-oxo-1H-1,2,4-triazol-4(5H)-yl)-4-methyl-N-(pyridin-3-ylmethyl)thiazole-5-carboxamide]",151 to 152 °C
3,"Cc1nc(N2CCN(CCc3c[nH]c4ccccc34)C2=O)sc1C(=O)NCc1ccccc1 [Example 23.7, 2-(3-(2-(1H-indol-3-yl)ethyl)-2-oxoimidazolidin-1-yl)-N-benzyl-4-methylthiazole-5-carboxamide]",215 to 217 °C
4,"Cc1nc(N2CCN(Cc3ccccc3)C2=O)sc1C(=O)NCc1ccccc1 [Example 8, N-benzyl-2-(3-benzyl-2-oxoimidazolidin-1-yl)-4-methylthiazole-5-carboxamide]",169 to 171 °C
5,"CCOC(=O)c1sc(N2CCNC2=O)nc1C(F)(F)F [Example 3.2, ethyl 2-(2-oxoimidazolidin-1-yl)-4-(trifluoromethyl)thiazole-5-carboxylate]",185 to 187 °C
6,"Cc1nc(N2CCN(CCc3ccccc3)C2=O)sc1C(=O)NCc1ccccc1 [Example 9.11, N-benzyl-4-methyl-2-(2-oxo-3-phenethylimidazolidin-1-yl)thiazole-5-carboxamide]",156 to 157 °C
7,"Cc1nc(N2CCN(Cc3ccccc3)C2=O)sc1C(=O)NCc1ccc(F)c(F)c1 [Example 9.5, 2-(3-benzyl-2-oxoimidazolidin-1-yl)-N-(3,4-difluorobenzyl)-4-methylthiazole-5-carboxamide]",152 to 153 °C
8,"COC(=O)c1cnc(N2CCN(CC3CC3)C2=O)s1 [Example 24, methyl 2-(3-(cyclopropylmethyl)-2-oxoimidazolidin-1-yl)thiazole-5-carboxylate]",124 to 126 °C
9,"Cc1nc(N2CCN(Cc3ccc(C#N)cc3)C2=O)sc1C(=O)NCc1ccccc1 [Example 23, N-benzyl-2-(3-(4-cyanobenzyl)-2-oxoimidazolidin-1-yl)-4-methylthiazole-5-carboxamide]",176 to 178 °C
10,"Cc1csc(N2CCN(Cc3ccc(C(=O)O)cc3)C2=O)n1 [Example 6.23, 4-((3-(4-methylthiazol-2-yl)-2-oxoimidazolidin-1-yl)methyl)benzoic acid]",222 to 224 °C
11,"CCOC(=O)c1sc(N2CCNC2=O)nc1C [Example 3, ethyl 4-methyl-2-(2-oxoimidazolidin-1-yl)thiazole-5-carboxylate]",197 to 199 °C
12,"Cc1nc(N2CCN(Cc3ccc(OC(F)(F)F)cc3)C2=O)sc1C(=O)Nc1ccccc1 [Example 9.30, 4-methyl-2-(2-oxo-3-(4-(trifluoromethoxy)benzyl)imidazolidin-1-yl)-N-phenylthiazole-5-carboxamide]",187 to 188 °C
13,"Cc1nc(N2CCN(CCC3CC3)C2=O)sc1C(=O)NCc1ccc(F)cc1 [Example 9.18, 2-(3-(2-cyclopropylethyl)-2-oxoimidazolidin-1-yl)-N-(4-fluorobenzyl)-4-methylthiazole-5-carboxamide]",122 to 123 °C
14,"CCOC(=O)c1sc(N2CCN(Cc3ccc(C(F)(F)F)cc3)C2=O)nc1C [Example 5.2, ethyl 4-methyl-2-(2-oxo-3-(4-(trifluoromethyl)benzyl)imidazolidin-1-yl)thiazole-5-carboxylate]",126 to 127 °C
15,"Cc1nc(-n2cnn(Cc3c(C)noc3C)c2=O)sc1C(=O)NCc1cccnc1 [Example 19.7, 2-(1-((3,5-dimethylisoxazol-4-yl)methyl)-5-oxo-1H-1,2,4-triazol-4(5H)-yl)-4-methyl-N-(pyridin-3-ylmethyl)thiazole-5-carboxamide]",233 to 234 °C
16,"Cc1nc(N2CCN(Cc3ccccc3)C2=O)sc1C(=O)O [Example 6.2, 2-(3-benzyl-2-oxoimidazolidin-1-yl)-4-methylthiazole-5-carboxylic acid]",248 to 249 °C
17,"CCOC(=O)c1sc(N2CCN(Cc3ccccc3)C2=O)nc1C [Example 5, ethyl 2-(3-benzyl-2-oxoimidazolidin-1-yl)-4-methylthiazole-5-carboxylate]",122 to 124 °C
18,"Cc1nc(N2CCN(Cc3cccc(C(F)(F)F)c3)C2=O)sc1C(=O)NCc1cccnc1 [Example 9.43, 4-methyl-2-(2-oxo-3-(3-(trifluoromethyl)benzyl)imidazolidin-1-yl)-N-(pyridin-3-ylmethyl)thiazole-5-carboxamide]",175 to 176 °C
19,"Cc1cnc(CNC(=O)c2sc(-n3cnn(Cc4ccc(F)cc4)c3=O)nc2C)cn1 [Example 21.15, 2-(1-(4-fluorobenzyl)-5-oxo-1H-1,2,4-triazol-4(5H)-yl)-4-methyl-N-((5-methylpyrazin-2-yl)methyl)thiazole-5-carboxamide]",188 to 189 °C
20,"Cc1nc(N2CCN(CC3CCCCC3)C2=O)sc1C(=O)NCc1cccnc1 [Example 9.35, 2-(3-(cyclohexylmethyl)-2-oxoimidazolidin-1-yl)-4-methyl-N-(pyridin-3-ylmethyl)thiazole-5-carboxamide]",134 to 136 °C
21,"Cc1nc(N2CCN(Cc3ccccc3)C2=O)sc1C(=O)NCc1ccncc1 [Example 9.9, 2-(3-benzyl-2-oxoimidazolidin-1-yl)-4-methyl-N-(pyridin-4-ylmethyl)thiazole-5-carboxamide]",96 to 97 °C
22,"Cc1nc(N2C(=O)N(CCc3ccc(F)cc3)CC2O)sc1C(=O)NCc1cccnc1 (stereo not shown) [Example 16.1, 2-(3-(4-fluorophenethyl)-5-hydroxy-2-oxoimidazolidin-1-yl)-4-methyl-N-(pyridin-3-ylmethyl)thiazole-5-carboxamide]",182 to 184 °C
23,"Cc1nc(N2CCN(Cc3ccccc3)C2=O)sc1C(=O)NCc1cccc(F)c1 [Example 8.1, 2-(3-benzyl-2-oxoimidazolidin-1-yl)-N-(3-fluorobenzyl)-4-methylthiazole-5-carboxamide]",169 to 171 °C
24,"Cc1nc(-n2cn[nH]c2=O)sc1C(=O)NCc1cccnc1 [Example 21.7, 4-methyl-2-(5-oxo-1H-1,2,4-triazol-4(5H)-yl)-N-(pyridin-3-ylmethyl)thiazole-5-carboxamide]",278 to 279 °C

# Continued, values first:
row,melting point,SMILES
1,140 to 142 °C,"Cc1nc(N2CCN(Cc3ccccc3)C2=N)sc1C(=O)NCc1ccc(F)c(F)c1 [Example 27.5, 2-(3-benzyl-2-iminoimidazolidin-1-yl)-N-(3,4-difluorobenzyl)-4-methylthiazole-5-carboxamide]"
2,78 to 81 °C,"Cc1nc(N2CCN(Cc3ncoc3-c3ccccc3)C2=O)sc1C(=O)NCc1cccnc1 [Example 32.5, 4-methyl-2-(2-oxo-3-((5-phenyloxazol-4-yl)methyl)imidazolidin-1-yl)-N-(pyridin-3-ylmethyl)thiazole-5-carboxamide]"
3,148 to 150 °C,"Cc1nc(CNC(=O)c2sc(-n3cnn(Cc4ccc(F)cc4)c3=O)cc2C)cs1 [Example 31.8, 5-(1-(4-fluorobenzyl)-5-oxo-1H-1,2,4-triazol-4(5H)-yl)-3-methyl-N-((2-methylthiazol-4-yl)methyl)thiophene-2-carboxamide]"
4,213 to 215 °C,"Cc1ncc(CNC(=O)c2sc(N3CCN(Cc4ccc(F)cc4)C3=O)nc2C)s1 [Example 32.12, 2-(3-(4-fluorobenzyl)-2-oxoimidazolidin-1-yl)-4-methyl-N-((2-methylthiazol-5-yl)methyl)thiazole-5-carboxamide]"
5,140 to 142 °C,"Cc1nc(N2CCN(Cc3ccccc3)S2(=O)=O)sc1C(=O)NCc1cccnc1 [Example 27.2, 2-(5-benzyl-1,1-dioxido-1,2,5-thiadiazolidin-2-yl)-4-methyl-N-(pyridin-3-ylmethyl)-1,3-thiazole-5-carboxamide]"
6,250 to 252 °C,"O=C(O)c1cnc(N2CCN(CC3CC3)C2=O)s1 [Example 25.1, 2-(3-(cyclopropylmethyl)-2-oxoimidazolidin-1-yl)thiazole-5-carboxylic acid]"
7,110 to 112 °C,"Cc1nc(N2CCN(Cc3ccc4nonc4c3)C2=O)sc1C(=O)NCc1cccnc1 [Example 32.6, 2-(3-(benzo[c][1,2,5]oxadiazol-5-ylmethyl)-2-oxoimidazolidin-1-yl)-4-methyl-N-(pyridin-3-ylmethyl)thiazole-5-carboxamide]"
8,188 °C (dec.),"Cc1cc(N2CCN(Cc3ccc(C(N)=O)cc3)C2=O)sc1C(=O)NCc1cccnc1 [Example 55.2, 5-(3-(4-carbamoylbenzyl)-2-oxoimidazolidin-1-yl)-3-methyl-N-(pyridin-3-ylmethyl)thiophene-2-carboxamide]"
9,163 to 164 °C,"Cc1nc(-n2cnn(CCNc3ccc(F)cc3)c2=O)sc1C(=O)NCc1cccnc1 [Example 47.1, 2-(1-(2-(4-fluorophenylamino)ethyl)-5-oxo-1H-1,2,4-triazol-4(5H)-yl)-4-methyl-N-(pyridin-3-ylmethyl)thiazole-5-carboxamide]"
10,174 to 176 °C,"Cc1cc(N2CCN(CC(=O)c3ccccc3)C2=O)sc1C(=O)NCc1cccnc1 [Example 55.1, 3-methyl-5-(2-oxo-3-(2-oxo-2-phenylethyl)imidazolidin-1-yl)-N-(pyridin-3-ylmethyl)thiophene-2-carboxamide]"
11,143 to 145 °C,"Cc1nc(N2CCN(Cc3cccc(C(=O)O)c3)C2=O)sc1C(=O)NCc1ccccc1 [Example 25.3, 3-((3-(5-(benzylcarbamoyl)-4-methylthiazol-2-yl)-2-oxoimidazolidin-1-yl)methyl)benzoic acid]"
12,151 to 153 °C,"Cc1nc(N2CCN(Cc3nccc4ccccc34)C2=O)sc1C(=O)NCc1cccnc1 [Example 32.1, 2-(3-(isoquinolin-1-ylmethyl)-2-oxoimidazolidin-1-yl)-4-methyl-N-(pyridin-3-ylmethyl)thiazole-5-carboxamide]"
13,218 to 221 °C,"Cc1cc(-c2sc(N3CCN(Cc4ccc(F)cc4)C3=O)nc2C)n[nH]1 [Example 40.1, 1-(4-fluorobenzyl)-3-(4-methyl-5-(5-methyl-1H-pyrazol-3-yl)thiazol-2-yl)imidazolidin-2-one]"
